# Source: patent US20150344407A1, “FENDILINE DERIVATIVES AND METHODS OF USE THEREOF” (THE BOARD OF REGENTS OF THE UNIVERSITY OF TEXAS SYSTEM, priority 2012, published 2015)
# Columns and labels:
# [1] = test system: phosphorylated ERK, a protein activated downstream of K-ras; assay: Western immunoblotting for pERK (inhibition of ERK activation); format: cell-based, canine; conditions: Canis lupus familiaris; 4 μM compound, 48 hours, MDCK cells stably expressing GFP-tagged K-rasG12V; whole cell lysates; normalized to vehicle-treated control; read-out: % Inhibition of ERK activation when treated with 4 μM compound
# Protocol: (§1) To determine the effect of compounds on localization of K-ras, Mardine Darby canine kidney epithelial (MDCK) cells stably expressing GFP-tagged K-rasG12V (oncogenic K-ras) grown on cover slips were treated with vehicle or compound (4 μM) for 48 hours and fixed with 4% paraformaldehyde. The coverslips were mounted in Mowiol and imaged by confocal microscopy (Nikon A1) using a 60× objective. Images were analyzed by ImageJ software. Densitometric analysis was performed on images to determine the degree of K-ras mislocalization. To determine the effect of compounds on K-ras function, MDCK cells stably expressing GFP-tagged K-rasG12V were treated with vehicle or compound (4 μM) for 48 hours. Following treatment, whole cell lysates were prepared and subjected SDS-PAGE and western blotting to quantify the level of phosphorylated ERK, a protein activated downstream of K-ras. All calculations were normalized to vehicle-treated control.
# Western Immunoblotting for pERK: 2×10^5 cells/well were seeded in 6-well cell culture plates. 24 h after seeding, fresh medium containing 1% vehicle (DMSO) or 4 μM test compound (1:100 dilution, such that DMSO was 1%) was added and incubated for 48 h. Cells were lysed in Buffer B (50 mM Tris [pH 7.5], 75 mM NaCl, 25 mM NaF, 5 mM MgCl2, 5 mM EGTA, 1 mM dithiothreitol, 100 μM NaVO4, 1% Nonidet P-40 plus protease inhibitors). SDS-PAGE and immunoblotting with the anti-phospho-p44/42 mitogen-activated protein kinase (MAPK) (ERK1/2) antibody was performed using 20 μg of each whole cell lysate. Signal was detected by enhanced chemiluminescence (SuperSignal; Pierce, Thermo Fisher Scientific, Rockford, Ill.) and imaged by FluorChemQ (Alpha Inotech, San Leandro, Calif.). Quantification of intensities was performed using FluorChemQ software. Results were normalized to vehicle-treated control.
# [2] = target: T1, GFP-tagged K-rasG12V (oncogenic K-ras) in MDCK cells (Homo sapiens, UniProt P01116, G12V); assay: K-ras mislocalization, confocal fluorescence microscopy with densitometric analysis; format: cell-based, canine; conditions: 4 μM compound, 48 hours, MDCK cells stably expressing GFP-tagged K-rasG12V; normalized to vehicle-treated control; read-out: % Mislocalization of K-ras when treated with 4 μM compound
# T1 construct: mGFP-tagged full length oncogenic mutant K-Ras (GFP-K-RasG12V); expressed in transfected cells
# Protocol: FIGS. 1 & 2—Representative images showing degree of K-ras mislocalization with compound treatment (images corresponds with column 3 of Table 2). MDCK cells stably expressing GFP-tagged K-rasG12V were treated with vehicle or compound (4 μM) for 48 hours and fixed with 4% paraformaldehyde. The coverslips were mounted in Mowiol and imaged by confocal microscopy (Nikon A1) using a 60× objective. The number above each image corresponds the fendiline derivative code.
# as §1
# Fluorescence microscopy: 2×10^5 or 1×10^5 cells/well were seeded in 6- or 12-well cell culture plates, respectively, containing glass coverslips. 24 h after seeding, fresh medium containing 1% vehicle (Dimethyl sulfoxide, DMSO) or 4 μM test compound (1:100 dilution, such that DMSO was 1%) was added and incubated for 48 h, following which the cells were fixed with 4% paraformaldehyde and coverslips were mounted in Mowiol. Cells were imaged in the GFP wavelength (488 nm) using a confocal microscope (Nikon A1) with 60× objective. Images were saved in tagged imaged file format (tiff) and analyzed by ImageJ software. The densitometric ratio of plasma membrane localized K-Ras versus total K-Ras was calculated and normalized to vehicle-treated control.
# HPAC cells = assay: Proliferation assay, pancreatic cancer cell line HPAC; format: cell-based; conditions: Homo sapiens, 72 h, CyQUANT, oncogenic mutant K-Ras
# Description: (§2) FIG. 5A-5E—Concentration-response curves of 42, 68, 70, 72 and 73 on proliferation of five pancreatic cancer cell lines. BxPC-3 expresses wild type K-Ras, whereas the others express oncogenic mutant K-Ras. […] EC50 values for their inhibitory effect are tabulated. ND means that the EC50 value could not be determined within the dose range tested. See also Table 5.
# (§3) Cell lines: Madine Darby Canine Kidney epithelial cells (MDCK) stably co-expressing mGFP-tagged full length oncogenic mutant K-Ras (GFP-K-RasG12V) and mCherry-tagged to the amino acids 179-189 of H-RasC181S, C184S (mCherry-CAAX, localizes primarily to endomembranes) were grown in DMEM-high glucose/sodium pyruvate/10% FBS. The medium was supplemented with 1× Penicillin/Streptomycin for fluorescence microscopy assays, to avoid any microbial contamination from the test compounds added. KLE and Hec50 cells were maintained in DMEM-F-12 medium supplemented with 10% FBS. Hec-1A and Hec-1B cells were grown in McCoy's 5a medium supplemented with 10% FBS. ESS-1 cells were grown in RPMI 1640 medium supplemented with 20% FBS. MPanc96 cells were grown in DMEM supplemented with 10% FBS, MiaPaCa-2 cells in DMEM supplemented with 10% FBS and 2.5% horse serum and all other cell lines were grown in RPMI 1640 supplemented with 10% FBS. All cancer cell media were supplemented with 1× Penicillin/Streptomycin. All cell lines were grown at 37° C. with 5% CO2.
# (§4) Proliferation Assay: Cells were seeded in 96-well plates. After 24 h, fresh growth medium supplemented with 0.1% vehicle (DMSO), or various concentrations of drugs was added and cells were grown for 72 h. Cell numbers were quantified using the CyQUANT® Cell Proliferation Assay Kit (Life Technologies), according to the manufacturer's protocol. Fluorescence measurement was used as a measure of live cell number.
# (§5) Based upon the concentration-response curves of five different compounds (42, 68, 70, 72, and 73) were tested for their effects on cell proliferation of five different pancreatic cell lines. These experiments were carried out as described in the Methods and Materials section.
# Hec50 cells = assay: Proliferation assay, endometrial cancer cell line Hec50; format: cell-based; conditions: 72 h, CyQUANT; Hec50 expresses oncogenic mutant K-Ras
# Description: (§6) FIG. 4A-4E—Concentration-response curves of 42, 68, 70, 72 and 73 on proliferation of five endometrial cancer cell lines. KLE and ESS-1 express wild type K-Ras and Hec-1A, Hec-1B and Hec50 express oncogenic mutant K-Ras. […] EC50 values for their inhibitory effect are tabulated. ND means that the EC50 value could not be determined within the dose range tested. See also Table 4.
# as §3, §4
# (§7) Based upon the concentration-response curves of five different compounds (42, 68, 70, 72, and 73) were tested for their effects on cell proliferation of five different endometrial cell lines. These experiments were carried out as described in the Methods and Materials section.
# MOH cells = assay: Proliferation assay, pancreatic cancer cell line MOH; format: cell-based; conditions: 72 h, CyQUANT, oncogenic mutant K-Ras
# Description: as §2, §3, §4, §5
# Hec-1A cells = assay: Proliferation assay, endometrial cancer cell line Hec-1A; format: cell-based; conditions: Homo sapiens; 72 h, CyQUANT; Hec-1A expresses oncogenic mutant K-Ras
# Description: as §6, §3, §4, §7
# Hec-1B cells = assay: Proliferation assay, endometrial cancer cell line Hec-1B; format: cell-based; conditions: Homo sapiens; 72 h, CyQUANT; Hec-1B expresses oncogenic mutant K-Ras; ND = EC50 could not be determined within the dose range tested
# Description: as §6, §3, §4
# Based upon the concentration-response curves of five different compounds (42, 68, 70, 72, and 73) were tested for their effects on cell proliferation of five different endometrial cell lines. […]
# MPanc-96 cells = assay: Proliferation assay, pancreatic cancer cell line MPanc-96; format: cell-based; conditions: MPANC96; 72 h, CyQUANT; oncogenic mutant K-Ras
# Description: as §2, §3, §4, §5
# MiaPaCa-2 cells = assay: Proliferation assay, pancreatic cancer cell line MiaPaCa-2; format: cell-based; conditions: Homo sapiens, MIA PaCa-2; 72 h, CyQUANT; oncogenic mutant K-Ras
# Description: as §2, §3, §4, §5
# T1 sequence (P01116 1-188 isoform P01116-2 G12V): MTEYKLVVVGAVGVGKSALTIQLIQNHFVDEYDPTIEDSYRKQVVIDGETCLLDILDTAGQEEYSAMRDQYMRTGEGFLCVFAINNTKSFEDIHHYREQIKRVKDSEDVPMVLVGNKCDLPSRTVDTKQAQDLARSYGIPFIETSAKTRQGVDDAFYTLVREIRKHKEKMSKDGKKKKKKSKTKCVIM
inhibition at 4 µM [2] [%],SMILES,inhibition at 4 µM [1] [%],other results
34,C[C@@H](NCC=C(c1ccccc1)c1ccccc1)c1ccc([N+](=O)[O-])cc1 [Compound 47],70.6,–
28.2,"C[C@@H](NCC=C(c1ccccc1)c1ccccc1)c1ccc(N)cc1 [Compound 48, (R)-4-(1-((3,3-diphenylallyl)amino)ethyl)aniline]",53.5,–
20.1,"C[C@@H](NC/C=C(/c1ccccc1)c1ccc([N+](=O)[O-])cc1)c1ccccc1 [Compound 49, (R,Z)-3-(4-nitrophenyl)-3-phenyl-N-(1-phenylethyl)prop-2-en-1-amine]",36.8,–
6.61,"C[C@@H](NC/C=C(/c1ccccc1)c1ccc(N)cc1)c1ccccc1 [Compound 50, (R,Z)-4-(1-phenyl-3-((1-phenylethyl)amino)prop-1-en-1-yl)aniline]",22.6,–
12.3,"C[C@@H](NC/C=C(\c1ccccc1)c1ccc([N+](=O)[O-])cc1)c1ccccc1 [Compound 55, (R,E)-3-(4-nitrophenyl)-3-phenyl-N-(1-phenylethyl)prop-2-en-1-amine]",-36.6,–
17.3,"C[C@@H](NC/C=C(\c1ccccc1)c1ccc(N)cc1)c1ccccc1 [Compound 56, (R,E)-4-(1-phenyl-3-((1-phenylethyl)amino)prop-1-en-1-yl)aniline]",-191,–
12.7,"COC(=O)[C@H](NCC=C(c1ccccc1)c1ccccc1)c1ccc(F)cc1 [Compound 57, (R)-methyl 2-((3,3-diphenylallyl)amino)-2-(4-fluorophenyl)acetate]",-105,–
5.05,"C[C@@H](NCC=C1c2ccccc2C=Cc2ccccc21)c1ccc(F)cc1 [Compound 58, (R)—N-(2 (5H-dibenzo[a,d][7]annulen-5-ylidene)ethyl)-1-(4-fluorophenyl) ethanamine]",-78.7,–

# The remaining lines, values behind:
SMILES,inhibition at 4 µM [2] [%],inhibition at 4 µM [1] [%],other results
"C[C@@H](NCC1CCCCC1)c1ccccc1 [Compound 38, (R)—N-(cyclohexylmethyl)-1-phenylethanamine]",9.67,32.7,–
"COC(=O)[C@@H](NC/C=C/c1ccccc1)c1ccccc1 [Compound 39, (S)-methyl 2-(cinnamylamino)-2-phenylacetate]",6.72,-10.2,–
"COC(=O)[C@H](NC/C=C/c1ccccc1)c1ccccc1 [Compound 40, (R)-methyl 2-(cinnamylamino)-2-phenylacetate]",9.46,11,–
"COC(=O)[C@H](NCC=C(c1ccccc1)c1ccccc1)c1ccccc1 [Compound 42, (R)-methyl 2-((3,3-diphenylallyl)amino)-2-phenylacetate]",50,44,EC50 (HPAC cells): 944 nM; EC50 (Hec50 cells): 423 nM; EC50 (MOH cells): 1040 nM; EC50 (Hec-1A cells): 7.39 nM; EC50 (Hec-1B cells): 524 nM; EC50 (MPanc-96 cells): 1120 nM; EC50 (MiaPaCa-2 cells): 2410 nM
"COC(=O)[C@@H](NCC=C(c1ccccc1)c1ccccc1)c1ccccc1 [Compound 43, (S)-methyl 2-((3,3-diphenylallyl)amino)-2-phenylacetate]",30.1,38.4,–
"C[C@@H](NCC=C(c1ccccc1)c1ccccc1)c1ccc(Br)cc1 [Compound 44, (R)—N-(1-(4-bromophenyl)ethyl)-3,3-diphenylprop-2-en-1-amine]",38.1,38.1,–
"C[C@@H](NCC=C(c1ccccc1)c1ccccc1)c1ccc(F)cc1 [Compound 45, (R)—N-(1-(4-fluorophenyl)ethyl)-3,3-diphenylprop-2-en-1-amine]",50,43.5,–
"CC[C@@H](NCC=C(c1ccccc1)c1ccccc1)c1ccccc1 [Compound 46, (R)-3,3-diphenyl-N-(1-phenylpropyl)prop-2-en-1-amine]",37.5,54,–
"COc1ccc([C@@H](C)N(CC=C(c2ccccc2)c2ccccc2)CC=C(c2ccccc2)c2ccccc2)cc1 [Compound 68, (R)-N-(3,3-diphenylallyl)-N-(1-(4-methoxyphenyl)ethyl)-3,3-diphenylprop-2-en-1-amine]",–,–,EC50 (HPAC cells): 105 nM; EC50 (Hec50 cells): 1.58 nM; EC50 (MOH cells): 931 nM; EC50 (Hec-1A cells): 211 nM; EC50 (MPanc-96 cells): 912 nM; EC50 (MiaPaCa-2 cells): 1150 nM
"C[C@H](c1cccc(Cl)c1)N(CC=C(c1ccccc1)c1ccccc1)CC=C(c1ccccc1)c1ccccc1 [Compound 70, (R)—N-(1-(3-chlorophenyl)ethyl)-N-(3,3-diphenylallyl)-3,3-diphenylprop-2-en-1-amine]",–,–,EC50 (HPAC cells): 220 nM; EC50 (Hec50 cells): 3310 nM; EC50 (MOH cells): 663 nM; EC50 (Hec-1A cells): 38.2 nM; EC50 (Hec-1B cells): 10700 nM; EC50 (MPanc-96 cells): 814 nM; EC50 (MiaPaCa-2 cells): 1500 nM
"C(CN(CC=C(c1ccccc1)c1ccccc1)[C@@H]1CCc2ccccc21)=C(c1ccccc1)c1ccccc1 [Compound 73, (R)—N,N-bis(3,3-diphenylallyl)-2,3-dihydro-1H-inden-1-amine]",–,–,EC50 (HPAC cells): 346 nM; EC50 (Hec50 cells): 412 nM; EC50 (MOH cells): 616 nM; EC50 (Hec-1A cells): 19.6 nM; EC50 (Hec-1B cells): 330 nM; EC50 (MPanc-96 cells): 239 nM; EC50 (MiaPaCa-2 cells): 894 nM
